Source: patent US8901118B2, “Compounds and methods for kinase modulation, and indications therefor” (Plexxikon Inc., priority 2010, dated 2014)

Columns and labels:
[1] = biological target: T1, BCR-NTRK2 BaF3 cells (Homo sapiens, UniProt Q16620); assay: BaF3 BCR-NTRK2 cell proliferation assay (ATPlite); type: cell-based; conditions: read-out: Inhibition of Cell Proliferation IC50, BCR/BaF3 TrkB
T1 construct: fused on or other part: P11274 (Breakpoint cluster region protein)
Outline: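 Growth inhibition over 3 days at 37 °C; IC50 from ATPlite luminescence, 8 concentrations (1:3 steps, max 10 μM). BaF3 fusion lines were tested without IL-3.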

[2] = biological target: CYP2C9 (Homo sapiens, UniProt P11712); assay: CYP2C9 inhibition (fluorescent substrate MFC); type: in vitro ADME; conditions: read-out: Cyp IC50 2C9
Chain of CYP2C9 (P11712 whole entry): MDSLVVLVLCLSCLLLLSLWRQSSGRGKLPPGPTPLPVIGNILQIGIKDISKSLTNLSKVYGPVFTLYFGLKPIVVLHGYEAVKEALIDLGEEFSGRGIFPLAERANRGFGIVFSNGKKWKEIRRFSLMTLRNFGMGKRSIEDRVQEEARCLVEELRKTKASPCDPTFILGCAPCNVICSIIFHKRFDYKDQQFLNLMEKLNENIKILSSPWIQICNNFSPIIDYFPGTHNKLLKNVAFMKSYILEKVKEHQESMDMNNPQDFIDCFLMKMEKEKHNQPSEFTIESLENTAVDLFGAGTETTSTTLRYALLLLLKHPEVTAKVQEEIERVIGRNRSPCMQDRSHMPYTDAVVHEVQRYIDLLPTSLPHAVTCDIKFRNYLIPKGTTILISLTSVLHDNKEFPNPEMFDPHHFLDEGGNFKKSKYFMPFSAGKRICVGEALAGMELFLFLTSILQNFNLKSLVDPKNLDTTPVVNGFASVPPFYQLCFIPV
Outline: (§1)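 Compounds, serially diluted 1:1 over 10 points in NADPH-regenerating cofactor mix with 5% acetonitrile, were preincubated 10 min at 37 °C, then run with enzyme and substrate at 37 °C (CYP1A2 15 min; CYP2C9 45 min; CYP2C19, CYP2D6 30 min). Product fluorescence gave IC50s.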

[3] = biological target: T2, CYP1A2 (Homo sapiens, UniProt P05177); assay: CYP1A2 inhibition (fluorescent substrate CEC); type: in vitro ADME; conditions: read-out: Cyp IC50 1A2
T2 sequence (P05177 1-516): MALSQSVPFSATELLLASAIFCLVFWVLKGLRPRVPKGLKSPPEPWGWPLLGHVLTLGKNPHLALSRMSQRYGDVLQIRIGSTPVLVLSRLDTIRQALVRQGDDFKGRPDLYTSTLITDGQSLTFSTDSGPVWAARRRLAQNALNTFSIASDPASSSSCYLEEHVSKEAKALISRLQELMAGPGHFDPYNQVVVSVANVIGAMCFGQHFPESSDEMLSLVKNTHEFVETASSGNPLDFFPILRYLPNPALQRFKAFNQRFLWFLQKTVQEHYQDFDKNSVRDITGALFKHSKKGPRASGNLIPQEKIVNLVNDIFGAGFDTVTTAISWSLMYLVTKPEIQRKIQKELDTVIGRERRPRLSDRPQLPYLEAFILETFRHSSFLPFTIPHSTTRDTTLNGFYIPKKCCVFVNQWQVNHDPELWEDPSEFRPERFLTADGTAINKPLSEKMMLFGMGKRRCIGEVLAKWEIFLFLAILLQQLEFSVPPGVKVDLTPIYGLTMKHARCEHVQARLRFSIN
Outline: as §1

[4] = test system: SKNSH cells; assay: SKNSH (human neuroblastoma) cell proliferation assay (ATPlite); type: cell-based; conditions: SK-N-SH, read-out: Inhibition of Cell Proliferation IC50, SKNSH
Outline: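 SK-N-SH human neuroblastoma cells grown in RPMI with 10% FBS were pelleted, resuspended at 2×10^4 cells/mL, and plated at 3,000 cells per well (150 μL) in 96-well plates, then kept overnight at 37° C. in 5% CO2. Compounds in an 8-point 1:3 DMSO series were added as 0.75 μL aliquots.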

T1 sequence (Q16620 538-807): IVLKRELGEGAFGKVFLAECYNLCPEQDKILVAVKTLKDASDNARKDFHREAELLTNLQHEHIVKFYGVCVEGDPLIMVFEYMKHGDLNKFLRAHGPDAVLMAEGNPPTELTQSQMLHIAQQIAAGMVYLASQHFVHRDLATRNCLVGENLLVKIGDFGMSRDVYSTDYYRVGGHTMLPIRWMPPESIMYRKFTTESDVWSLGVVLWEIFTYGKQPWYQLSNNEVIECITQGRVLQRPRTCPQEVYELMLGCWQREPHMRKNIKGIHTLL

COc1ccc(Nc2ccc(Cc3c[nH]c4ncc(C)cc34)c(F)n2)cn1 [Compound P-3019, [6-fluoro-5-(5-methyl-1H-pyrrolo[2,3-b]pyridin-3-ylmethyl)-pyridin-2-yl]-(6-methoxy-pyridin-3-yl)-amine]
IC50 [1]: < 0.1 µM | IC50 [2]: > 10 µM | IC50 [3]: > 10 µM | IC50 [4]: < 10 µM

COc1ccc(Nc2ncc(Cc3c[nH]c4ncc(C)cc34)cn2)cn1 [Compound P-3020, (6-Methoxy-pyridin-3-yl)-[5-(5-methyl-1H-pyrrolo[2,3-b]pyridin-3-ylmethyl)-pyrimidin-2-yl]-amine]
IC50 [1]: < 0.1 µM | IC50 [4]: < 1 µM

COc1ccc(Nc2ncc(Cc3c[nH]c4ncc(C)cc34)cn2)cc1 [Compound P-3021, (4-Methoxy-phenyl)-[5-(5-methyl-1H-pyrrolo[2,3-b]pyridin-3-ylmethyl)-pyrimidin-2-yl]-amine]
IC50 [1]: < 0.1 µM | IC50 [4]: < 1 µM

CCCOc1ccc(Nc2ncc(Cc3c[nH]c4ncc(C)cc34)cn2)cc1 [Compound P-3024, [5-(5-Methyl-1H-pyrrolo[2,3-b]pyridin-3-ylmethyl)-pyrimidin-2-yl]-(4-propoxy-phenyl)-amine]
IC50 [1]: < 1 µM | IC50 [4]: < 1 µM

CCc1ccc(Nc2ncc(Cc3c[nH]c4ncc(C)cc34)cn2)cc1 [Compound P-3025, (4-Ethyl-phenyl)-[5-(5-methyl-1H-pyrrolo[2,3-b]pyridin-3-ylmethyl)-pyrimidin-2-yl]-amine]
IC50 [1]: < 0.01 µM | IC50 [4]: < 1 µM

CCOc1ccc(Nc2ncc(Cc3c[nH]c4ncc(C)cc34)cn2)cc1 [Compound P-3026, (4-Ethoxy-phenyl)-[5-(5-methyl-1H-pyrrolo[2,3-b]pyridin-3-ylmethyl)-pyrimidin-2-yl]-amine]
IC50 [1]: < 0.1 µM | IC50 [4]: > 25 µM

CCOc1ccc(Nc2ncc(Cc3c[nH]c4ncc(C)cc34)cn2)cn1 [Compound P-3027, (6-Ethoxy-pyridin-3-yl)-[5-(5-methyl-1H-pyrrolo[2,3-b]pyridin-3-ylmethyl)-pyrimidin-2-yl]-amine]
IC50 [1]: < 1 µM | IC50 [4]: > 25 µM

Cc1cnc2[nH]cc(Cc3cnc(Nc4cc(-c5ccc(F)cc5)n[nH]4)nc3)c2c1 [Compound P-3028, [5-(4-Fluoro-phenyl)-2H-pyrazol-3-yl]-[5-(5-methyl-1H-pyrrolo[2,3-b]pyridin-3-ylmethyl)-pyrimidin-2-yl]-amine]
IC50 [1]: < 1 µM | IC50 [4]: < 20 µM

Cc1cnc2[nH]cc(Cc3cnc(Nc4cc(C(C)(C)C)n[nH]4)nc3)c2c1 [Compound P-3029, (5-tert-Butyl-2H-pyrazol-3-yl)-[5-(5-methyl-1H-pyrrolo[2,3-b]pyridin-3-ylmethyl)-pyrimidin-2-yl]-amine]
IC50 [1]: > 1 µM | IC50 [4]: > 25 µM

Cc1cnc2[nH]cc(Cc3cnc(Nc4ccc(C(C)(C)C)cc4)nc3)c2c1 [Compound P-3030, (4-tert-Butyl-phenyl)-[5-(5-methyl-1H-pyrrolo[2,3-b]pyridin-3-ylmethyl)-pyrimidin-2-yl]-amine amine]
IC50 [1]: < 0.01 µM | IC50 [4]: < 0.1 µM

Cc1cnc2[nH]cc(Cc3cnc(Nc4ccc(C(O)(C(F)(F)F)C(F)(F)F)cc4)nc3)c2c1 [Compound P-3031, 1,1,1,3,3,3-Hexafluoro-2-{4-[5-(5-methyl-1H-pyrrolo[2,3-b]pyridin-3-ylmethyl)-pyrimidin-2-ylamino]-phenyl}-propan-2-ol]
IC50 [1]: < 0.01 µM | IC50 [4]: < 0.1 µM

Cc1cnc2[nH]cc(Cc3cnc(Nc4cc(C5CC5)n[nH]4)nc3)c2c1 [Compound P-3032, (5-Cyclopropyl-2H-pyrazol-3-yl)-[5-(5-methyl-1H-pyrrolo[2,3-b]pyridin-3-ylmethyl)-pyrimidin-2-yl]-amine]
IC50 [1]: > 1 µM | IC50 [4]: < 1 µM

CSc1ccc(Nc2ncc(Cc3c[nH]c4ncc(C)cc34)cn2)cc1 [Compound P-3033, [5-(5-Methyl-1H-pyrrolo[2,3-b]pyridin-3-ylmethyl)-pyrimidin-2-yl]-(4-methylsulfanyl-phenyl)-amine]
IC50 [1]: < 0.1 µM | IC50 [4]: < 1 µM

Cc1cnc2[nH]cc(Cc3cnc(Nc4ccc(S(C)(=O)=O)cc4)nc3)c2c1 [Compound P-3034, (4-Methanesulfonyl-phenyl)-[5-(5-methyl-1H-pyrrolo[2,3-b]pyridin-3-ylmethyl)-pyrimidin-2-yl]-amine]
IC50 [1]: < 1 µM | IC50 [4]: < 1 µM

CCn1ccc(Nc2ncc(Cc3c[nH]c4ncc(C)cc34)cn2)n1 [Compound P-3035, (1-Ethyl-1H-pyrazol-3-yl)-[5-(5-methyl-1H-pyrrolo[2,3-b]pyridin-3-ylmethyl)-pyrimidin-2-yl]-amine]
IC50 [1]: < 1 µM | IC50 [4]: < 1 µM

CCn1cc(Nc2ncc(Cc3c[nH]c4ncc(C)cc34)cn2)cn1 [Compound P-3036, (1-Ethyl-1H-pyrazol-4-yl)-[5-(5-methyl-1H-pyrrolo[2,3-b]pyridin-3-ylmethyl)-pyrimidin-2-yl]-amine]
IC50 [1]: < 1 µM | IC50 [4]: < 20 µM

Cc1cnc2[nH]cc(Cc3cnc(Nc4cc(C(F)(F)F)n[nH]4)nc3)c2c1 [Compound P-3037, [5-(5-Methyl-1H-pyrrolo[2,3-b]pyridin-3-ylmethyl)-pyrimidin-2-yl]-(5-trifluoromethyl-2H-pyrazol-3-yl)-amine]
IC50 [1]: > 10 µM | IC50 [4]: > 25 µM

Cc1cnc2[nH]cc(Cc3cnc(Nc4cc(OC(C)C)n[nH]4)nc3)c2c1 [Compound P-3038, (5-Isopropoxy-2H-pyrazol-3-yl)-[5-(5-methyl-1H-pyrrolo[2,3-b]pyridin-3-ylmethyl)-pyrimidin-2-yl]-amine]
IC50 [1]: > 1 µM | IC50 [4]: > 25 µM

CCOc1ccc(Nc2ccc(Cc3c[nH]c4ncc(C)cc34)c(F)n2)cn1 [Compound P-3039, (6-ethoxy-pyridin-3-yl)-[6-fluoro-5-(5-methyl-1H-pyrrolo[2,3-b]pyridin-3-ylmethyl)-pyridin-2-yl]-amine]
IC50 [1]: < 1 µM | IC50 [2]: > 10 µM | IC50 [3]: > 10 µM | IC50 [4]: > 1 µM

COc1ccc(Nc2ccc(C(=O)c3c[nH]c4ncc(C)cc34)c(F)n2)cn1 [Compound P-3040, [2-Fluoro-6-(6-methoxy-pyridin-3-ylamino)-pyridin-3-yl]-(5-methyl-1H-pyrrolo[2,3-b]pyridin-3-yl)-methanone]
IC50 [1]: < 0.01 µM | IC50 [2]: > 10 µM | IC50 [3]: > 10 µM | IC50 [4]: > 1 µM

Cc1cnc2[nH]cc(Cc3ccc(Nc4ccc(C)nc4)nc3F)c2c1 [Compound P-3041, [6-Fluoro-5-(5-methyl-1H-pyrrolo[2,3-b]pyridin-3-ylmethyl)-pyridin-2-yl]-(6-methyl-pyridin-3-yl)-amine]
IC50 [1]: < 1 µM | IC50 [2]: > 10 µM | IC50 [3]: > 10 µM | IC50 [4]: > 1 µM

Cc1ccc(Nc2ccc(Cc3c[nH]c4ncc(Cl)cc34)c(F)n2)cn1 [Compound P-3042, [5-(5-Chloro-1H-pyrrolo[2,3-b]pyridin-3-ylmethyl)-6-fluoro-pyridin-2-yl]-(6-methyl-pyridin-3-yl)-amine]
IC50 [1]: < 0.1 µM | IC50 [4]: > 1 µM

CCOc1ccc(Nc2ccc(C(=O)c3c[nH]c4ncc(C)cc34)c(F)n2)cn1 [Compound P-3045, [6-(6-ethoxy-pyridin-3-ylamino)-2-fluoro-pyridin-3-yl]-(5-methyl-1H-pyrrolo[2,3-b]pyridin-3-yl)-methanone]
IC50 [1]: < 0.01 µM | IC50 [4]: > 25 µM

CCOc1ncnc2[nH]cc(Cc3ccc(Nc4ccc(Br)nc4)nc3F)c12 [Compound P-4020, (6-Bromo-pyridin-3-yl)-[5-(4-ethoxy-7H-pyrrolo[2,3-d]pyrimidin-5-ylmethyl)-6-fluoro-pyridin-2-yl]-amine]
IC50 [1]: < 0.1 µM | IC50 [4]: < 1 µM

CCOc1ncnc2[nH]cc(Cc3ccc(Nc4cccnc4)nc3F)c12 [Compound P-4021, [5-(4-Ethoxy-7H-pyrrolo[2,3-d]pyrimidin-5-ylmethyl)-6-fluoro-pyridin-2-yl]-pyridin-3-yl-amine]
IC50 [1]: < 1 µM | IC50 [4]: < 1 µM

CCn1cc(Nc2ccc(Cc3c[nH]c4ncnc(C5CC5)c34)c(F)n2)cn1 [Compound P-4036, [5-(4-Cyclopropyl-7H-pyrrolo[2,3-d]pyrimidin-5-ylmethyl)-6-fluoro-pyridin-2-yl]-(1-ethyl-1H-pyrazol-4-yl)-amine]
IC50 [1]: < 0.1 µM | IC50 [2]: 5 to 10 µM | IC50 [3]: 5 to 10 µM
